Assays:
[1] = Acute toxicity in the mouse; conditions: in vivo
[2] = Cardiovascular parameters: intact dogs; type: in vivo, dog; conditions: for Average pressure / Diastolic pressure / Systolic pressure: in % (unit assumed)
Experimental: (§1) Unsorted dogs of either sex weighing 8 to 17 kg and anaesthetised by chloralose in solution in polyethylene glycol 300 (0.12 g/kg) were respirated artificially using a Bird pump (Mark 7). The carotid arterial blood pressure was measured with the aid of a Statham P 23 dB device. The left ventricular pressure is measured with the same device connected by a supple catheter introduced by the femoral artery and pushed into the left ventricle. The cardiac rhythm is measured from the signals of the carotid pressure. The myocardial contractile force is measured using a strain gauge (Apelab) attached to the right ventricle. All the parameters are recorded on a Beckman polygraph. Two series of dogs are used to test the cardiovascular activity: 5 dogs atropinised (1 mg/kg intravenously) and bivagotomised; and a second series of 4 intact dogs. The product of Example 1 was injected through the saphena vein and the duration of the injection was 2 minutes.
The following Table IX gives the variations of the parameters recorded and their significance according to the t test (* p<0.05; ** p<0.01; *** p<0.001).

[3] = Stimulation of dental pulp in the rabbit; type: in vivo
Experimental: 24 Hours before the test, each incisor of the rabbit is drilled 1 mm below the gum to a depth of about 1 mm. The next day, the animals are placed in restraining boxes and stimulating electrodes are placed in position. The threshold of reaction to the electrical stimulation (at 30 Hz; 10 ms; for 1 s) is measured by the munching reaction of the rabbits. The product of Example 1 was administered intravenously and its effect on the pain threshold was measured at regular intervals after treatment.

[4] = Analgesic activity: Randall and Selitto's test (beer yeast paw, pain threshold); type: in vivo, rat
Experimental: This activity was measured by Siegmund's test in mice and Randall and Selitto's test in the rat. Groups of ten male rats each weight 120 to 140 g received by subcutaneous plantar injection 0.05 ml of a 5% aqueous suspension of beer yeast. 2 Hours after this treatment they received the compound under test orally and 1 hour after administration of this compound the paw which had been injected and the contralateral paw were subjected to increasing pressure. The appearance of the pain threshold was noted.

[5] = Acute toxicity in the rat; conditions: in vivo
[6] = Analgesic activity: Siegmund's test (phenylbenzoquinone painful reactions); type: in vivo; conditions: Mus musculus, po, read-out: percentage inhibition of reactions
Experimental: This activity was measured by Siegmund's test in mice and Randall and Selitto's test in the rat.
Groups of six mice received the compound under test orally 1 hour before intraperitoneal injection of 0.2 ml of an 0.02% of solution of phenylbenzoquinone. The number of painful reactiors from the fifth to the tenth minute after the injection of phenylbenzoquinone was counted.

[7] = Solubility in water; type: physicochemical
[8] = Action on isoprenaline in dogs; type: in vivo, dog; conditions: only if atropinised and bivagotomised
[9] = Cardiovascular parameters: atropinised and bivagotomised dogs; type: in vivo, dog
Experimental: as §1
The following Table VIII gives the variations of the recorded parameters and their significance according to the t test (* p< 0.05; ** p<0.01).

[10] = 16 mg/kg intravenously, 4 dogs, ** p<0.01
[11] = 5 mg/kg intravenously, 5 dogs, * p<0.05
[12] = 8 mg/kg intravenously, 5 dogs, ** p<0.01

With `Cc1cccc(Nc2ncccc2C(=O)OCCN2CCOCC2)c1C` [Example 1, β-Morpholino ethyl nixylate] the LD50 at 168 h ([1]; ip) was 700 mg/kg, the LD50 at 168 h ([1]; iv) was 110 mg/kg and the LD50 at 168 h ([1]; po) was 1600 mg/kg. The “Alteration in cardiac rhythm” value ([2]; 1 mg/kg intravenously, 4 dogs) was -1 beats per minute, the “Duration of the hypotension” value ([2]; 1 mg/kg intravenously, 4 dogs) was 30 and the Average pressure ([2]; 1 mg/kg intravenously, 4 dogs) was -9±5.2. For the same compound, the Diastolic pressure ([2]; 1 mg/kg intravenously, 4 dogs) was -10±5.7, the Systolic pressure ([2]; 1 mg/kg intravenously, 4 dogs) was -8±4.6 and the “Alteration in cardiac rhythm” value ([2]; 4 mg/kg intravenously, 4 dogs) was -15 beats per minute. For the same compound, the “Duration of the hypotension” value ([2]; 4 mg/kg intravenously, 4 dogs) was 60, the Diastolic pressure ([2]; 4 mg/kg intravenously, 4 dogs, * p<0.05) was -18±5.5 and the Average pressure ([2]; 4 mg/kg intravenously, 4 dogs) was -16±5.4. For the same compound, the Systolic pressure ([2]; 4 mg/kg intravenously, 4 dogs) was -15±5.3, the “Alteration in cardiac rhythm” value ([2]; 8 mg/kg intravenously, 2 dogs) was -22 beats per minute and the Average pressure ([2]; 8 mg/kg intravenously, 2 dogs) was -38. For the same compound, the Diastolic pressure ([2]; 8 mg/kg intravenously, 2 dogs) was -41, the Systolic pressure ([2]; 8 mg/kg intravenously, 2 dogs) was -34 and the “Alteration in cardiac rhythm” value ([2]; 16 mg/kg intravenously, 4 dogs) was -37 beats per minute. The “Duration of the hypotension” value ([2]; 16 mg/kg intravenously, 4 dogs) was greater than 50, the Average pressure [2, 10] was -54±4.3 and the Systolic pressure [2, 10] was -45±7. For the same compound, the Diastolic pressure ([2]; 16 mg/kg intravenously, 4 dogs, *** p<0.001) was -57±3.8, the “biphasic action on the recorded parameters” value ([2]; different dosages) was “No biphasic action on the recorded parameters was observed” and the “Threshold, % (increase)” value ([3]; 2.5 mg/kg intravenously, 1h30) was 59%. For the same compound, the Threshold in volts ([3]; 2.5 mg/kg intravenously, 1h30, pre-treatment 2.26) was 3.61 volts, the “Threshold, % (increase)” value ([3]; 2.5 mg/kg intravenously, 2h30) was 47% and the Threshold in volts ([3]; 2.5 mg/kg intravenously, 2h30, pre-treatment 2.26) was 3.33 volts. The “Threshold, % (increase)” value ([3]; 2.5 mg/kg intravenously, 15 min) was 38%, the Threshold in volts ([3]; 2.5 mg/kg intravenously, 15 min, pre-treatment 2.26) was 3.12 volts and the “Threshold, % (increase)” value ([3]; 2.5 mg/kg intravenously, 30 min) was 33%. The Threshold in volts ([3]; 2.5 mg/kg intravenously, 30 min, pre-treatment 2.26) was 3.02 volts, the “Threshold, % (increase)” value ([3]; 2.5 mg/kg intravenously, 1 h) was 41% and the Threshold in volts ([3]; 2.5 mg/kg intravenously, 1 h, pre-treatment 2.26) was 3.20 volts. The “Threshold, % (increase)” value ([3]; 2.5 mg/kg intravenously, 2 h) was 56%, the Threshold in volts ([3]; 2.5 mg/kg intravenously, 2 h, pre-treatment 2.26) was 3.54 volts and the “Threshold, % (increase)” value ([3]; 5 mg/kg intravenously, 1h30) was 59%. For the same compound, the Threshold in volts ([3]; 5 mg/kg intravenously, 1h30, pre-treatment 2.54) was 4.05 volts, the “Threshold, % (increase)” value ([3]; 5 mg/kg intravenously, 2h30) was 15% and the Threshold in volts ([3]; 5 mg/kg intravenously, 2h30, pre-treatment 2.54) was 2.94 volts. The “Threshold, % (increase)” value ([3]; 5 mg/kg intravenously, 15 min) was 95%, the Threshold in volts ([3]; 5 mg/kg intravenously, 15 min, pre-treatment 2.54) was 4.97 volts and the “Threshold, % (increase)” value ([3]; 5 mg/kg intravenously, 30 min) was 88%. For the same compound, the Threshold in volts ([3]; 5 mg/kg intravenously, 30 min, pre-treatment 2.54) was 4.80 volts, the “Threshold, % (increase)” value ([3]; 5 mg/kg intravenously, 1 h) was 58% and the Threshold in volts ([3]; 5 mg/kg intravenously, 1 h, pre-treatment 2.54) was 4.02 volts. For the same compound, the “Threshold, % (increase)” value ([3]; 5 mg/kg intravenously, 2 h) was 30%, the Threshold in volts ([3]; 5 mg/kg intravenously, 2 h, pre-treatment 2.54) was 3.31 volts and the “Threshold, % (increase)” value ([3]; 10 mg/kg intravenously, 1h30) was 52%. For the same compound, the Threshold in volts ([3]; 10 mg/kg intravenously, 1h30, pre-treatment 2.65) was 4.05 volts, the “Threshold, % (increase)” value ([3]; 10 mg/kg intravenously, 2h30) was 24% and the Threshold in volts ([3]; 10 mg/kg intravenously, 2h30, pre-treatment 2.65) was 3.29 volts. The “Threshold, % (increase)” value ([3]; 10 mg/kg intravenously, 15 min) was 74%, the Threshold in volts ([3]; 10 mg/kg intravenously, 15 min, pre-treatment 2.65) was 4.62 volts and the “Threshold, % (increase)” value ([3]; 10 mg/kg intravenously, 30 min) was 118%. For the same compound, the Threshold in volts ([3]; 10 mg/kg intravenously, 30 min, pre-treatment 2.65) was 5.80 volts, the “Threshold, % (increase)” value ([3]; 10 mg/kg intravenously, 1 h) was 69% and the Threshold in volts ([3]; 10 mg/kg intravenously, 1 h, pre-treatment 2.65) was 4.49 volts. For the same compound, the “Threshold, % (increase)” value ([3]; 10 mg/kg intravenously, 2 h) was 40%, the Threshold in volts ([3]; 10 mg/kg intravenously, 2 h, pre-treatment 2.65) was 3.72 volts and the “percentage increase of pain threshold” value ([4]; with yeast, 8 mg/kg orally) was 15%. The “percentage increase of pain threshold” value ([4]; with yeast, 16 mg/kg orally) was 68%, the “percentage increase of pain threshold” value ([4]; with yeast, 32 mg/kg orally) was 90% and the “percentage increase of pain threshold” value ([4]; with yeast, 64 mg/kg orally) was 83%. The “percentage increase of pain threshold” value ([4]; with yeast, 128 mg/kg orally) was 120%, the “percentage increase of pain threshold” value ([4]; with yeast, 256 mg/kg orally) was 161% and the “percentage increase of pain threshold” value ([4]; without yeast, 8 mg/kg orally) was 37%. The “percentage increase of pain threshold” value ([4]; without yeast, 16 mg/kg orally) was 29%, the “percentage increase of pain threshold” value ([4]; without yeast, 32 mg/kg orally) was 51% and the “percentage increase of pain threshold” value ([4]; without yeast, 64 mg/kg orally) was 72%. The “percentage increase of pain threshold” value ([4]; without yeast, 128 mg/kg orally) was 101%, the “percentage increase of pain threshold” value ([4]; without yeast, 256 mg/kg orally) was 126% and the LD50 at 168 h ([5]; ip) was 875 mg/kg. For the same compound, the LD50 at 168 h ([5]; po) was greater than 2350 mg/kg, the inhibition in vivo at 4 mg/kg ([6]; 4 mg/kg orally) was 10% and the inhibition in vivo at 8 mg/kg ([6]; 8 mg/kg orally) was 26%. For the same compound, the inhibition in vivo at 16 mg/kg ([6]; 16 mg/kg orally) was 26%, the inhibition in vivo at 32 mg/kg ([6]; 32 mg/kg orally) was 45% and the inhibition in vivo at 64 mg/kg ([6]; 64 mg/kg orally) was 64%. For the same compound, the inhibition in vivo at 128 mg/kg ([6]; 128 mg/kg orally) was 83%, the inhibition in vivo at 256 mg/kg ([6]; 256 mg/kg orally) was 95% and the solubility in water ([7]; dihydrochloride) was “very soluble”. The solubility in water ([7]; monohydrochloride) was “sparingly soluable in water”, the “potentiation of the action of isoprenaline” value [8] was “potentiates the action of isoprenaline in 3 dogs out of 5” and the Average blood pressure ([9]; 1 mg/kg intravenously, 5 dogs) was -4±2%. For the same compound, the Diastolic blood pressure ([9]; 1 mg/kg intravenously, 5 dogs) was -4±2%, the Systolic blood pressure ([9]; 1 mg/kg intravenously, 5 dogs) was -3,3±3% and the Average blood pressure ([9]; 2 mg/kg intravenously, 2 dogs) was -12%. The Diastolic blood pressure ([9]; 2 mg/kg intravenously, 2 dogs) was -12%, the “Duration of reduced blood pressure” value ([9]; 2 mg/kg intravenously, 2 dogs) was 30 and the Systolic blood pressure ([9]; 2 mg/kg intravenously, 2 dogs) was -12%. The “Change in cardiac rhythm” value ([9]; 5 mg/kg intravenously, 5 dogs) was -8 to -20 beats per minute, the Diastolic blood pressure [9, 11] was -15±4% and the Systolic blood pressure [9, 11] was -13±3%. For the same compound, the Average blood pressure ([9]; 5 mg/kg intravenously, 5 dogs, ** p<0.01) was -14±3%, the “Change in cardiac rhythm” value ([9]; 8 mg/kg intravenously, 5 dogs) was -8 to -20 beats per minute and the Average blood pressure [9, 12] was -26±5%. It also gave a Diastolic blood pressure [9, 12] of -27±5%, a Systolic blood pressure [9, 12] of -24±5% and an Average blood pressure ([9]; 16 mg/kg intravenously, 2 dogs) of -31%. The “Change in cardiac rhythm” value ([9]; 16 mg/kg intravenously, 2 dogs) was -18 to -24 beats per minute, the Diastolic blood pressure ([9]; 16 mg/kg intravenously, 2 dogs) was -32% and the “Duration of reduced blood pressure” value ([9]; 16 mg/kg intravenously, 2 dogs) was greater than 30. The Systolic blood pressure ([9]; 16 mg/kg intravenously, 2 dogs) was -30%, the blood pressure ([9]; doses of 4 mg/kg and above, during the injection or one to two minutes afterwards) was “reduction in blood pressure” and the contractile force ([9]; during the injection or one to two minutes afterwards, 2 dogs only) was “slight increase in the contractile force”. For the same compound, the “increase in the cardiac rhythm” value ([9]; during the injection or one to two minutes afterwards, according to the dose) was 2-16 beats per minute, the “left ventricular blood pressure” value ([9]; measured in two dogs only) was “followed the variations of the arterial blood pressure” and the hypotension ([9]; two minutes after the injection) was “hypotension proportional to the dose injected”.

Source: patent US3959272A, “Aminoalkyl esters of 2-anilino-nicotinic acids” (Societe Anonyme dite: Hexachime, priority 1972, dated 1976)
